Publication doi:10.1101/2024.08.25.609621 (bioRxiv, 2024)
Several values for one entry are separate records, joined by “and”; a condition that tells them apart may be missing. Equal entries are not always repeated. Where two headings read alike, the source gives them in different places.

Key:
[1] = target: SARS-CoV-2 NSP3 macrodomain (Mac1) (Severe acute respiratory syndrome coronavirus 2, UniProt P0DTD1); assay: biochemical; assay type: binding; details: for SARS CoV-2 macrodomain HTRF assay: Hillslope: dose-response fit; for IC50: read-out: SARS CoV-2 macrodomain HTRF assay: IC50
[2] = target: SARS-CoV-2 NSP3 macrodomain (Mac1), P43 crystal form (Severe acute respiratory syndrome coronavirus 2, UniProt P0DTD1); assay type: binding; details: for 1-BDC: PanDDA background density correction; for Total number of conformations: ligand conformations modeled in Mac1 crystal structure; for X-ray crystallography: Binding site: site where the ligand is bound in the X-ray crystal structure
[3] = crystal soak concentration 10 mM, DMSO background map, event 1
[4] = crystal soak concentration 10 mM, P43 crystals
[5] = crystal soak concentration 10 mM, DMSO background map
[6] = crystal soak concentration 20 mM, DMSO background map
[7] = crystal soak concentration 20 mM, DMSO background map, event 1
[8] = crystal soak concentration 20 mM, P43 crystals
[9] = Single dose, concentration 200 μM, read-out: SARS CoV-2 macrodomain HTRF assay: Average % competition
[10] = preliminary screen, compound at 200 μM, mean of 3-4 technical replicates, read-out: % competition in HTRF assay
[11] = crystal soak, soak concentration 10 mM
[12] = crystal soak, soak concentration 10 mM, TRUE = ligand hit
[13] = occupancy estimate from PanDDA 1-BDC
[14] = soak concentration 10 mM, DMSO background map
[15] = occupancy estimate from PanDDA BDC
[16] = X-ray crystal structure determined (TRUE)
[17] = crystal soak 10 mM, P43 crystals
[18] = crystal soak 10 mM, DMSO background map
[19] = site of ligand in X-ray crystal structure

COc1ccc(NC(=O)NC2CCCC2)cc1-n1nnnc1C [AVI-311]
Average % competition ([1]; Single dose, 200 μM, mean of three technical replicates): 0%
PanDDA run, DMSO background map: 1-BDC [2, 3]: 0.09
Pandda run, overall: Hit [2, 4]: TRUE
Pandda run, overall: Modeling comment [2, 4]: Weak density, not modeled
PanDDA run, DMSO background map: Hit [2, 5]: TRUE
PanDDA run, DMSO background map: Hit [2, 6]: TRUE
PanDDA run, DMSO background map: 1-BDC [2, 7]: 0.12
Pandda run, overall: Hit [2, 8]: TRUE
Pandda run, overall: Modeling comment [2, 8]: Weak density, not modeled

OC[C@@H]1C[C@@H]2CCC[C@@H]2N1c1ncnc2[nH]ccc12 [AVI-3720]
Hill slope ([1]; HTRF dose-response fit, Mac1): 1.2
inhibition at 200 µM [1, 9]: 92%
SARS CoV-2 macrodomain HTRF assay: Hillslope [1]: 1.2
inhibition at 200 µM [1, 10]: 92%
1-BDC [2]: 0.29
Phe132 loop open state ([2]; TRUE = open state of Phe132 loop modeled): TRUE
Pandda run, overall: Modeled [2, 11]: TRUE
Pandda run, overall: Hit [2, 12]: TRUE
Total number of conformations [2]: 1
2*(1-BDC) (%) [2, 13]: 58%
X-ray crystallography: Binding site [2]: Adenosine
PanDDA run, DMSO background map: 1-BDC [2, 14]: 0.29
PanDDA run, DMSO background map: Hit [2, 14]: TRUE

CC1(C)CCN(c2ncnc3[nH]ccc23)C(CO)C1 (stereo not shown) [AVI-5994]
Hill slope ([1]; HTRF dose-response fit, Mac1): 1.2
SARS CoV-2 macrodomain HTRF assay: Hillslope [1]: 1.2
Occupancy difference (refined_occupancy - 2*(1-BDC)) [2]: 0
Refined ligand occupancy (%) [2]: 46%
PanDDA run, DMSO background map: 1-BDC ([2]; DMSO background map, event 1): 0.23 and 0.27
1-BDC [2]: 0.23
Comment ([2]; comment on ligand modeling / Phe132 loop density): Weak density for open state of Phe132 loop
Total number of conformations [2]: 2
2*(1-BDC) (%) [2, 15]: 46%
X-ray crystallography: Binding site [2]: Adenosine

OC1(CNc2ncnc3[nH]ccc23)CCC2(CC1)OCCO2 [AVI-4315]
Hill slope ([1]; HTRF dose-response fit, Mac1): 1.2
SARS CoV-2 macrodomain HTRF assay: Hillslope [1]: 1.2

OCC(CN1CCCCC1)Nc1ncnc2[nH]ccc12 (stereo not shown) [AVI-3677]
% competition in HTRF assay ([1]; preliminary screen, compound at 200 μM, mean of 3-4 technical replicates): neither had detectable binding
1-BDC [2]: 0.21
X-ray crystal structure [2, 16]: TRUE
Pandda run, overall: Hit [2, 17]: TRUE
Pandda run, overall: Modeled [2, 17]: TRUE
PanDDA run, DMSO background map: 1-BDC [2, 18]: 0.21
PanDDA run, DMSO background map: Hit [2, 18]: TRUE
Total number of conformations [2]: 1
2*(1-BDC) (%) [2, 13]: 42%
Binding site [2, 19]: Adenosine

O=C(O)C(F)(F)F.OC[C@H](Cc1ccc(O)cc1)Nc1ncnc2[nH]ccc12 [AVI-4066]
Hill slope ([1]; HTRF dose-response fit, Mac1): 1.1
Hill slope ([1]; SARS CoV-2 macrodomain HTRF assay, dose-response): 1.1
Occupancy difference (refined_occupancy - 2*(1-BDC)) [2]: 10
Refined ligand occupancy (%) [2]: 50%
1-BDC [2]: 0.2
X-ray crystal structure [2, 16]: TRUE
Hit (PanDDA run, overall) [2, 17]: TRUE
Hit (PanDDA run, DMSO background map) [2, 18]: TRUE
1-BDC (PanDDA run, DMSO background map) ([2]; crystal soak 10 mM, DMSO background map, event 1): 0.2 and 0.37 and 0.38
Total number of conformations [2]: 1
2*(1-BDC) (%) [2, 15]: 40%
Refined TFA occupancy (%) ([2]; occupancy of TFA in the dataset of the named ligand): 20%
Binding site [2, 19]: Adenosine

Cc1c[nH]c2ncnc(NCC3(O)CC[S+]([O-])CC3)c12 (stereo not shown) [AVI-4198]
IC50 ([1]; dose-response): > 1000 µM

O[C@H]1CC[C@@H]2CCN(c3ncnc4[nH]ccc34)[C@@H]21 [AVI-3664]
Hill slope ([1]; HTRF dose-response fit, Mac1): 1.2
inhibition at 200 µM [1, 9]: 93%
SARS CoV-2 macrodomain HTRF assay: Hillslope [1]: 1.2
inhibition at 200 µM [1, 10]: 93%
1-BDC [2]: 0.16
Pandda run, overall: Hit [2, 17]: TRUE
Pandda run, overall: Modeled [2, 17]: TRUE
PanDDA run, DMSO background map: 1-BDC [2, 18]: 0.16
PanDDA run, DMSO background map: Hit [2, 18]: TRUE
Total number of conformations [2]: 1
2*(1-BDC) (%) [2, 13]: 32%
X-ray crystallography: Binding site [2]: Adenosine

O=S1(=O)CCC(O)(CNc2ncnc3[nH]ccc23)CC1 [AVI-4316]
IC50 ([1]; dose-response): > 1000 µM

CC(Nc1ncnc2[nH]ccc12)C1(O)CCCCC1 (stereo not shown) [AVI-4321]
Hill slope ([1]; HTRF dose-response fit, Mac1): 1.2
SARS CoV-2 macrodomain HTRF assay: Hillslope [1]: 1.2

Cc1c[nH]c2ncnc(NCC3(O)CCS(=O)(=O)CC3)c12 [AVI-4199]
IC50 ([1]; dose-response): > 1000 µM

FC(F)(F)C1CCCN1c1ncnc2[nH]ccc12 (stereo not shown) [AVI-5996]
IC50 ([1]; dose-response): > 1000 µM

OCC1CCC2(CCOCC2)CN1c1ncnc2[nH]ccc12 (stereo not shown) [AVI-4065]
Hill slope ([1]; HTRF dose-response fit, Mac1): 1.2
SARS CoV-2 macrodomain HTRF assay: Hillslope [1]: 1.2

OCC(Cc1ccccn1)Nc1ncnc2[nH]ccc12 (stereo not shown) [AVI-3696]
1-BDC [2]: 0.13
X-ray crystal structure [2, 16]: TRUE
Pandda run, overall: Hit [2, 17]: TRUE
Pandda run, overall: Modeled [2, 17]: TRUE
PanDDA run, DMSO background map: 1-BDC [2, 18]: 0.13
PanDDA run, DMSO background map: Hit [2, 18]: TRUE
Total number of conformations [2]: 2
2*(1-BDC) (%) [2, 13]: 26%
Binding site [2, 19]: Adenosine

OCC(CC1CCC1)Nc1ncnc2[nH]ccc12 (stereo not shown) [AVI-3641]
1-BDC [2]: 0.18
X-ray crystal structure [2, 16]: TRUE
Pandda run, overall: Hit [2, 17]: TRUE
Pandda run, overall: Modeled [2, 17]: TRUE
PanDDA run, DMSO background map: 1-BDC [2, 18]: 0.18
PanDDA run, DMSO background map: Hit [2, 18]: TRUE
Total number of conformations [2]: 1
2*(1-BDC) (%) [2, 13]: 36%
Binding site [2, 19]: Adenosine

CN1CCN(c2ncnc3[nH]ccc23)C(CO)C1 (stereo not shown) [AVI-3721]
1-BDC [2]: 0.06
Pandda run, overall: Modeled [2, 11]: TRUE
Pandda run, overall: Hit [2, 12]: TRUE
Total number of conformations [2]: 2
2*(1-BDC) (%) [2, 13]: 12%
X-ray crystallography: Binding site [2]: Adenosine
PanDDA run, DMSO background map: 1-BDC [2, 14]: 0.06
PanDDA run, DMSO background map: Hit [2, 14]: TRUE

OCC(CC1CCOC1)Nc1ncnc2[nH]ccc12 (stereo not shown) [AVI-3665]
1-BDC [2]: 0.17
X-ray crystal structure [2, 16]: TRUE
Pandda run, overall: Hit [2, 17]: TRUE
Pandda run, overall: Modeled [2, 17]: TRUE
PanDDA run, DMSO background map: 1-BDC [2, 18]: 0.17
PanDDA run, DMSO background map: Hit [2, 18]: TRUE
Total number of conformations [2]: 1
2*(1-BDC) (%) [2, 13]: 34%
Binding site [2, 19]: Adenosine

OCC(CC(F)(F)F)Nc1ncnc2[nH]ccc12 (stereo not shown) [AVI-3637]
1-BDC [2]: 0.23
X-ray crystal structure [2, 16]: TRUE
Pandda run, overall: Modeled [2, 11]: TRUE
Pandda run, overall: Hit [2, 12]: TRUE
Total number of conformations [2]: 1
2*(1-BDC) (%) [2, 13]: 46%
Binding site [2, 19]: Adenosine
PanDDA run, DMSO background map: 1-BDC [2, 14]: 0.23
PanDDA run, DMSO background map: Hit [2, 14]: TRUE

O=C(O)C(F)(F)F.OCC12CC(CN1c1ncnc3[nH]ccc13)C2 [AVI-3681]
1-BDC [2]: 0.22
Pandda run, overall: Hit [2, 17]: TRUE
Pandda run, overall: Modeled [2, 17]: TRUE
Pandda run, overall: Modeling comment [2, 17]: Distal site, weak density, not modeled
PanDDA run, DMSO background map: 1-BDC [2, 18]: 0.22
PanDDA run, DMSO background map: Hit [2, 18]: TRUE
Total number of conformations [2]: 1
2*(1-BDC) (%) [2, 13]: 44%
X-ray crystallography: Binding site [2]: Adenosine

OCC(Cc1cccs1)Nc1ncnc2[nH]ccc12 (stereo not shown) [AVI-3711]
1-BDC [2]: 0.21
X-ray crystal structure [2, 16]: TRUE
Pandda run, overall: Modeled [2, 11]: TRUE
Pandda run, overall: Hit [2, 12]: TRUE
Total number of conformations [2]: 1
2*(1-BDC) (%) [2, 13]: 42%
Binding site [2, 19]: Adenosine
PanDDA run, DMSO background map: 1-BDC [2, 14]: 0.21
PanDDA run, DMSO background map: Hit [2, 14]: TRUE

CO[C@@H]1C[C@H](CO)N(c2ncnc3[nH]ccc23)C1 [AVI-3656]
1-BDC [2]: 0.26
Pandda run, overall: Hit [2, 17]: TRUE
Pandda run, overall: Modeled [2, 17]: TRUE
PanDDA run, DMSO background map: 1-BDC [2, 18]: 0.26
PanDDA run, DMSO background map: Hit [2, 18]: TRUE
Total number of conformations [2]: 1
2*(1-BDC) (%) [2, 13]: 52%
X-ray crystallography: Binding site [2]: Adenosine

OCC1CC2(CCCCC2)CN1c1ncnc2[nH]ccc12 (stereo not shown) [AVI-3727]
1-BDC [2]: 0.29
Pandda run, overall: Modeled [2, 11]: TRUE
Pandda run, overall: Modeling comment [2, 11]: Distal site, weak density, not modeled
Pandda run, overall: Hit [2, 12]: TRUE
Total number of conformations [2]: 1
2*(1-BDC) (%) [2, 13]: 58%
X-ray crystallography: Binding site [2]: Adenosine
PanDDA run, DMSO background map: 1-BDC [2, 14]: 0.29
PanDDA run, DMSO background map: Hit [2, 14]: TRUE

OCC(Cc1cncs1)Nc1ncnc2[nH]ccc12 (stereo not shown) [AVI-3703]
1-BDC [2]: 0.15
X-ray crystal structure [2, 16]: TRUE
Pandda run, overall: Modeled [2, 11]: TRUE
Pandda run, overall: Hit [2, 12]: TRUE
Total number of conformations [2]: 1
2*(1-BDC) (%) [2, 13]: 30%
Binding site [2, 19]: Adenosine
PanDDA run, DMSO background map: 1-BDC [2, 14]: 0.15
PanDDA run, DMSO background map: Hit [2, 14]: TRUE

CNc1ccc(NS(=O)(=O)c2cc3cccc(C)c3s2)cn1 [AVI-345]
Occupancy difference (refined_occupancy - 2*(1-BDC)) [2]: 0
Refined ligand occupancy (%) [2]: 52%
1-BDC [2]: 0.26
X-ray crystal structure ([2]; TRUE = crystal structure with ligand determined): TRUE
PanDDA run, DMSO background map: 1-BDC [2, 3]: 0.17
Pandda run, overall: Hit [2, 4]: TRUE
Pandda run, overall: Modeling comment [2, 4]: Duplicate, not modeled
PanDDA run, DMSO background map: Hit [2, 5]: TRUE
PanDDA run, DMSO background map: Hit [2, 6]: TRUE
PanDDA run, DMSO background map: Modeled [2, 6]: TRUE
PanDDA run, DMSO background map: 1-BDC [2, 7]: 0.26
Pandda run, overall: Hit [2, 8]: TRUE
Pandda run, overall: Modeled [2, 8]: TRUE
Total number of conformations [2]: 1
2*(1-BDC) (%) [2, 15]: 52%
Binding site ([2]; site of Mac1 where ligand bound in crystal structure): Adenosine
